In patent US6479506B1 (dated 2002) one finds melting point data, which are given here for 26 compounds.

Structures are written as SMILES.

As to `CCCn1ncnc1COc1nc2c(nnn2-c2ccccc2)c2ccccc12`, the melting point (in general, the temperature of the solid-liquid transition) lay within 154 to 156 °C.

Take `Cn1cnc(COc2nc3c(cc2C(C)(C)C)nnn3-c2ccccc2F)n1`: the melting point lay within 127 to 129 °C. As to `COc1cccc(F)c1-n1nnc2cc(C(C)(C)C)c(OCc3ncnn3C)nc21`, the melting point lay within 116 to 118 °C. For `Cn1ncnc1COc1nc2c(cc1-c1ccsc1)nnn2-c1ccccc1F`, the melting point fell in the range of 133 to 135 °C.

Turning to `Cn1ncnc1COc1nc2c(cc1-c1cccc(F)c1)nnn2-c1c(F)cccc1F`, the melting point was in the range of 137 to 140 °C. The same measure for `Cn1ncnc1COc1nc2c(cc1-c1ccco1)nnn2-c1ccccc1F`: 170 to 173 °C; for `Cn1ncnc1COc1nc2c(cc1-c1ccccc1)nnn2-c1ccccc1F`: 144 to 146 °C. In turn, `Cn1ncnc1COc1nc2c(cc1-c1ccoc1)nnn2-c1ccccc1F` yielded a melting point of 145 to 146 °C.

On to `CCn1ncnc1COc1nc2c(nnn2-c2ccccc2)c2ccccc12`, for which the melting point lay within 192 to 195 °C.

Take `Cn1ncnc1COc1nc2c(nnn2-c2ccccc2)c2ccccc12`: the melting point was 188 to 190 °C. `Cn1ncnc1COc1nc2c(cc1C(C)(C)C)nnn2-c1ccccc1F` had a melting point of 115 to 117 °C.

`CCn1ncnc1COc1nc2c(cc1C(C)(C)C)nnn2-c1cc(F)ccc1F` came in with a melting point of 148 to 150 °C. Consider `Cn1ncnc1COc1nc2c(cc1C(C)(C)C)nnn2-c1c(F)cccc1F`, for which the melting point is 105 to 108 °C. The same measure for `Cn1ncnc1COc1nc2c(cc1C(C)(C)C)nnn2-c1ccccc1`: 165 to 167 °C. As for `CCCn1ncnc1COc1nc2c(cc1C(C)(C)C)nnn2-c1ccccc1F`, the melting point lay in the range of 127 to 129 °C.

`Cn1ncnc1COc1nc2c(cc1C1CCC1)nnn2-c1c(F)cccc1F` (hydrate or solvate) gave a melting point of 140 to 144 °C. The same measure for `c1ccc(-n2nnc3c4ccccc4c(OCc4ccccn4)nc32)cc1`: 147 to 150 °C. Take `Cn1ncnc1COc1nc2c(cc1-c1ccoc1)nnn2-c1c(F)cccc1F`: the melting point was in the range of 166 to 169 °C.

The compound `Cn1ncnc1COc1nc2c(cc1CC(C)(C)C)nnn2-c1ccccc1F` returned a melting point of 130 to 133 °C. The same measure for `Cn1ncnc1COc1nc2c(cc1C1CCC1)nnn2-c1ccccc1F`: 120 to 122 °C; for `Cn1ncnc1COc1nc2c(cc1-c1ccc(F)cc1)nnn2-c1ccccc1F`: 142 to 145 °C. `Cn1cnc(COc2nc3c(cc2C(C)(C)C)nnn3-c2ccccc2)n1` had a melting point of 179 to 180 °C. The same measure for `Cn1cnc(COc2nc3c(cc2-c2ccsc2)nnn3-c2ccccc2F)n1`: 174 to 176 °C.

Compound `Cn1cnc(COc2nc3c(nnn3-c3ccccc3)c3ccccc23)n1` returned a melting point of 189 to 190 °C. The compound `COC(=O)c1cc2nnn(-c3ccccc3)c2nc1OCc1ncnn1C` registered a melting point of 188 to 190 °C. In turn, `Cn1cnc(COc2nc3c(cc2-c2cccs2)nnn3-c2ccccc2F)n1` displayed a melting point of 179 to 181 °C.
